Source: patent US10695337B2, “Piperidin-4-yl azetidine derivatives as JAK1 inhibitors” (Incyte Corporation, priority 2010, dated 2020)

Biological target: human JAK1 (a.a. 837-1142)
Assay: In vitro JAK kinase assay (HTRF, phosphorylation of a biotinylated peptide), JAK1
Type: biochemical
Details: measured at 1 mM ATP; JAK2 IC50 / JAK1 IC50
Method in brief: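 N-terminal His-tagged catalytic domains, baculovirus-expressed in insect cells, phosphorylated a biotinylated peptide for 1 hr at room temperature. EDTA stop was followed by SA-APC and Eu-Py20 antibody for 40 minutes, with phosphopeptide read by HTRF.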

Row | Structure (SMILES) | IC50 Ratio JAK2/JAK1
1 | N#CCC1(n2cc(-c3ncnc4[nH]ccc34)cn2)CN(C2CCN(C(=O)Nc3ncccc3F)CC2)C1 [Example 202, 4-{3-(cyanomethyl)-3-[4-(7H-pyrrolo[2,3-d]pyrimidin-4-yl)-1H-pyrazol-1-yl]azetidin-1-yl}-N-(3-fluoropyridin-2-yl)piperidine-1-carboxamide] | 6.4
2 | N#CCC1(n2cc(-c3ncnc4[nH]ccc34)cn2)CN(C2CCN(C(=O)Nc3ncc(F)cc3F)CC2)C1 [Example 203, 4-{3-(cyanomethyl)-3-[4-(7H-pyrrolo[2,3-d]pyrimidin-4-yl)-1H-pyrazol-1-yl]azetidin-1-yl}-N-(3,5-difluoropyridin-2-yl)piperidine-1-carboxamide] | 8.6
3 | COc1ncccc1NC(=O)N1CCC(N2CC(CC#N)(n3cc(-c4ncnc5[nH]ccc45)cn3)C2)CC1 [Example 204, 4-{3-(cyanomethyl)-3-[4-(7H-pyrrolo[2,3-d]pyrimidin-4-yl)-1H-pyrazol-1-yl]azetidin-1-yl}-N-(2-methoxypyridin-3-yl)piperidine-1-carboxamide] | 4.0
4 | Cc1nc(C(F)(F)F)ccc1NC(=O)N1CCC(N2CC(CC#N)(n3cc(-c4ncnc5[nH]ccc45)cn3)C2)CC1 [Example 205, 4-{3-(cyanomethyl)-3-[4-(7H-pyrrolo[2,3-d]pyrimidin-4-yl)-1H-pyrazol-1-yl]azetidin-1-yl}-N-[2-methyl-6-(trifluoromethyl)pyridin-3-yl]piperidine-1-carboxamide] | 4.4
5 | COC(=O)c1ccccc1NC(=O)N1CCC(N2CC(CC#N)(n3cc(-c4ncnc5[nH]ccc45)cn3)C2)CC1 [Example 206, methyl 2-{[(4-{3-(cyanomethyl)-3-[4-(7H-pyrrolo[2,3-d]pyrimidin-4-yl)-1H-pyrazol-1-yl]azetidin-1-yl}piperidin-1-yl)carbonyl]amino}benzoate] | 1.6
6 | COC(=O)c1cc(F)ccc1NC(=O)N1CCC(N2CC(CC#N)(n3cc(-c4ncnc5[nH]ccc45)cn3)C2)CC1 [Example 207, methyl 2-{[(4-{3-(cyanomethyl)-3-[4-(7H-pyrrolo[2,3-d]pyrimidin-4-yl)-1H-pyrazol-1-yl]azetidin-1-yl}piperidin-1-yl)carbonyl]amino}-5-fluorobenzoate] | 2.5
7 | COC(=O)c1ccc(NC(=O)N2CCC(N3CC(CC#N)(n4cc(-c5ncnc6[nH]ccc56)cn4)C3)CC2)c(F)c1 [Example 208, methyl 4-{[(4-{3-(cyanomethyl)-3-[4-(7H-pyrrolo[2,3-d]pyrimidin-4-yl)-1H-pyrazol-1-yl]azetidin-1-yl}piperidin-1-yl)carbonyl]amino}-3-fluorobenzoate] | 4.8
8 | CN(C)c1ccc(CN2CCC(N3CC(CC#N)(n4cc(-c5ncnc6[nH]ccc56)cn4)C3)CC2)c(F)c1C#N [Example 209, 3-[(4-{3-(Cyanomethyl)-3-[4-(7H-pyrrolo[2,3-d]pyrimidin-4-yl)-1H-pyrazol-1-yl]azetidin-1-yl}piperidin-1-yl)methyl]-6-(dimethylamino)-2-fluorobenzonitrile] | 19.0
9 | N#CCC1(n2cc(-c3ncnc4[nH]ccc34)cn2)CN(C2CCN(Cc3cc(Cl)cc(Cl)c3)CC2)C1 [Example 210, {1-[1-(3,5-dichlorobenzyl)piperidin-4-yl]-3-[4-(7H-pyrrolo[2,3-d]pyrimidin-4-yl)-1H-pyrazol-1-yl]azetidin-3-yl}acetonitrile] | 4.3
10 | N#CCC1(n2cc(-c3ncnc4[nH]ccc34)cn2)CN(C2CCN(Cc3cc(C(F)(F)F)ccc3Cl)CC2)C1 [Example 211, {1-{1-[2-chloro-5-(trifluoromethyl)benzyl]piperidin-4-yl}-3-[4-(7H-pyrrolo[2,3-d]pyrimidin-4-yl)-1H-pyrazol-1-yl]azetidin-3-yl}acetonitrile] | 5.0
11 | N#CCC1(n2cc(-c3ncnc4[nH]ccc34)cn2)CN(C2CCN(Cc3cccc(C(F)(F)F)c3F)CC2)C1 [Example 212, {1-{1-[2-fluoro-3-(trifluoromethyl)benzyl]piperidin-4-yl}-3-[4-(7H-pyrrolo[2,3-d]pyrimidin-4-yl)-1H-pyrazol-1-yl]azetidin-3-yl}acetonitrile] | 7.8
12 | N#CCC1(n2cc(-c3ncnc4[nH]ccc34)cn2)CN(C2CCN(Cc3c(F)cccc3C(F)(F)F)CC2)C1 [Example 213, {1-{1-[2-fluoro-6-(trifluoromethyl)benzyl]piperidin-4-yl}-3-[4-(7H-pyrrolo[2,3-d]pyrimidin-4-yl)-1H-pyrazol-1-yl]azetidin-3-yl}acetonitrile] | 9.7
13 | N#CCC1(n2cc(-c3ncnc4[nH]ccc34)cn2)CN(C2CCN(Cc3cc4ccccc4nc3Cl)CC2)C1 [Example 214, {1-{1-[(2-chloroquinolin-3-yl)methyl]piperidin-4-yl}-3-[4-(7H-pyrrolo[2,3-d]pyrimidin-4-yl)-1H-pyrazol-1-yl]azetidin-3-yl}acetonitrile] | 2.5
14 | N#CCC1(n2cc(-c3ncnc4[nH]ccc34)cn2)CN(C2CCN(Cc3cc(F)cc(F)c3)CC2)C1 [Example 215, {1-[1-(3,5-difluorobenzyl)piperidin-4-yl]-3-[4-(7H-pyrrolo[2,3-d]pyrimidin-4-yl)-1H-pyrazol-1-yl]azetidin-3-yl}acetonitrile] | 5.7
15 | COc1cccc(F)c1CN1CCC(N2CC(CC#N)(n3cc(-c4ncnc5[nH]ccc45)cn3)C2)CC1 [Example 218, {1-[1-(2-fluoro-6-methoxybenzyl)piperidin-4-yl]-3-[4-(7H-pyrrolo[2,3-d]pyrimidin-4-yl)-1H-pyrazol-1-yl]azetidin-3-yl}acetonitrile] | 2.6
16 | N#CCC1(n2cc(-c3ncnc4[nH]ccc34)cn2)CN(C2CCN(Cc3cccc(Cl)c3Cl)CC2)C1 [Example 219, {1-[1-(2,3-dichlorobenzyl)piperidin-4-yl]-3-[4-(7H-pyrrolo[2,3-d]pyrimidin-4-yl)-1H-pyrazol-1-yl]azetidin-3-yl}acetonitrile] | 2.4
17 | N#CCC1(n2cc(-c3ncnc4[nH]ccc34)cn2)CN(C2CCN(Cc3ccc(F)c(C#N)c3)CC2)C1 [Example 220, 5-[(4-{3-(cyanomethyl)-3-[4-(7H-pyrrolo[2,3-d]pyrimidin-4-yl)-1H-pyrazol-1-yl]azetidin-1-yl}piperidin-1-yl)methyl]-2-fluorobenzonitrile] | 4.4
18 | N#CCC1(n2cc(-c3ncnc4[nH]ccc34)cn2)CN(C2CCN(Cc3ccc(-c4conn4)cc3)CC2)C1 [Example 221, {1-{1-[4-(1,2,3-oxadiazol-4-yl)benzyl]piperidin-4-yl}-3-[4-(7H-pyrrolo[2,3-d]pyrimidin-4-yl)-1H-pyrazol-1-yl]azetidin-3-yl}acetonitrile] | 1.3
19 | N#CCC1(n2cc(-c3ncnc4[nH]ccc34)cn2)CN(C2CCN(Cc3cccc(C#N)c3)CC2)C1 [Example 223, 3-[(4-{3-(cyanomethyl)-3-[4-(7H-pyrrolo[2,3-d]pyrimidin-4-yl)-1H-pyrazol-1-yl]azetidin-1-yl}piperidin-1-yl)methyl]benzonitrile] | 5.9
20 | COc1nc(CN2CCC(N3CC(CC#N)(n4cc(-c5ncnc6[nH]ccc56)cn4)C3)CC2)ccc1C#N [Example 224, 6-[(4-{3-(cyanomethyl)-3-[4-(7H-pyrrolo[2,3-d]pyrimidin-4-yl)-1H-pyrazol-1-yl]azetidin-1-yl}piperidin-1-yl)methyl]-2-methoxynicotinonitrile] | 2.4
21 | N#CCC1(n2cc(-c3ncnc4[nH]ccc34)cn2)CN(C2CCN(Cc3cc(Br)nc(Br)c3)CC2)C1 [Example 225, {1-{1-[(2,6-dibromopyridin-4-yl)methyl]piperidin-4-yl}-3-[4-(7H-pyrrolo[2,3-d]pyrimidin-4-yl)-1H-pyrazol-1-yl]azetidin-3-yl}acetonitrile] | 3.8
22 | N#CCC1(n2cc(-c3ncnc4[nH]ccc34)cn2)CN(C2CCN(Cc3ccnc(Br)c3)CC2)C1 [Example 226, {1-{1-[(2-bromopyridin-4-yl)methyl]piperidin-4-yl}-3-[4-(7H-pyrrolo[2,3-d]pyrimidin-4-yl)-1H-pyrazol-1-yl]azetidin-3-yl}acetonitrile] | 1.9
23 | N#CCC1(n2cc(-c3ncnc4[nH]ccc34)cn2)CN(C2CCN(Cc3c(F)cccc3Cl)CC2)C1 [Example 227, {1-[1-(2-chloro-6-fluorobenzyl)piperidin-4-yl]-3-[4-(7H-pyrrolo[2,3-d]pyrimidin-4-yl)-1H-pyrazol-1-yl]azetidin-3-yl}acetonitrile] | 7.9
24 | N#CCC1(n2cc(-c3ncnc4[nH]ccc34)cn2)CN(C2CCN(Cc3c(F)ccc(Cl)c3F)CC2)C1 [Example 228, {1-[1-(3-chloro-2,6-difluorobenzyl)piperidin-4-yl]-3-[4-(7H-pyrrolo[2,3-d]pyrimidin-4-yl)-1H-pyrazol-1-yl]azetidin-3-yl}acetonitrile] | 3.9
25 | N#CCC1(n2cc(-c3ncnc4[nH]ccc34)cn2)CN(C2CCN(Cc3ccc(C#N)c(F)c3)CC2)C1 [Example 229, 4-[(4-{3-(cyanomethyl)-3-[4-(7H-pyrrolo[2,3-d]pyrimidin-4-yl)-1H-pyrazol-1-yl]azetidin-1-yl}piperidin-1-yl)methyl]-2-fluorobenzonitrile] | 6.4
26 | Cc1onc(-c2ccccc2)c1CN1CCC(N2CC(CC#N)(n3cc(-c4ncnc5[nH]ccc45)cn3)C2)CC1 [Example 230, {1-{1-[(5-methyl-3-phenylisoxazol-4-yl)methyl]piperidin-4-yl}-3-[4-(7H-pyrrolo[2,3-d]pyrimidin-4-yl)-1H-pyrazol-1-yl]azetidin-3-yl}acetonitrile] | 9.3
27 | N#CCC1(n2cc(-c3ncnc4[nH]ccc34)cn2)CN(C2CCN(Cc3ccnc(C(F)(F)F)c3F)CC2)C1 [Example 231, {1-(1-{[3-fluoro-2-(trifluoromethyl)pyridin-4-yl]methyl}piperidin-4-yl)-3-[4-(7H-pyrrolo[2,3-d]pyrimidin-4-yl)-1H-pyrazol-1-yl]azetidin-3-yl}acetonitrile] | 5.1
